# Measured values as given in US4340672A, “Enzymatic synthesis of β-lactam antibacterials” (Shionogi & Co., Ltd., priority 1979, dated 1982).
# Tests used:
# [1] = system: B. Circulans M-1123-5 acylase; assay: Selectivity of the acylases; conditions: ester (I) 45 mg, amine (II) 9 mg, 37° C., 3 hours 45 minutes; TLC and paper-disc assay with Bacillus subtilis PCI-219
# [2] = system: A. fragerum M-2183-1 acylase; assay: Selectivity of the acylases; conditions: ester (I) 45 mg, amine (II) 9 mg, 37° C., 3 hours 45 minutes; TLC and paper-disc assay with Bacillus subtilis PCI-219
# [3] = system: A. globiformis M-345-2 acylase; assay: Selectivity of the acylases; conditions: ester (I) 45 mg, amine (II) 9 mg, 37° C., 3 hours 45 minutes; TLC and paper-disc assay with Bacillus subtilis PCI-219
# Solubility in water = type: physicochemical; conditions: read-out: concentration that can dissolve in water
# [4] = system: acylase of Xanthomonas axonopodis M-621-1 on Sepharose 4B; assay: Cephalexin production with immobilized enzyme of Xanthomonas axonopodis M-621-1; type: biochemical; conditions: ester 45 mg, 7-aminodeacetoxycephalosporanic acid 3 mg, 37° C., 3.5 hours
# [5] = system: acylase of Micrococcus roseus M-1054-1 (broth); assay: Cephalothin production with broth of Micrococcus roseus; type: biochemical; conditions: 3.5 hours at 37° C.; paper disc assay against Bacillus subtilis PCI-219
# Protocol: The broth is adjusted to pH 7.0. The broth (4.5 ml) is added to a solution of 7-ACA (3%) and (i) 2-thienylacetic acid glycerin ester, (ii) 2-thienylacetic acid tetraethyleneglycol ester or (iii) 2-thienylacetic acid octaethyleneglycol ester in 0.2 M-phosphate buffer (0.5 ml) to react for 3.5 hours at 37° C. The reaction mixture is centrifuged to remove cells and the supernatant is assayed by paper disc assay method against Bacillus subtilis PCI-219 to the following values of produced cephalothin.
# [6] = system: immobilized enzyme (acylase) of Bacillus circulans M-1123-5; assay: Reactivity of TA esters by column method; type: biochemical; conditions: 7-ACA 5 mg/ml, 37° C., 25 ml/hr
# Protocol: Concentration of CET in the eluate is determined by assaying antibacterial activity against Bacillus subtilis PCI-219 to estimate the yield on Table 3 in the laminar flow state. (Immobilization of purified enzyme)
# [7] = system: immobilized enzyme (acylase) of Bacillus circulans M-1123-5 on Sepharose 4B; assay: Reactivity of TA esters by batch process; type: biochemical; conditions: 7-ACA to CET, 7-ACA 30 mg in 10 ml, pH 7.0, 37° C., 3 hours
# Protocol: To a solution of 7-ACA (30 mg) and TA-esters (given amount) in M/10-phosphate buffer (pH 7.0) (10 ml) is added an immobilized enzyme (0.9 g) on Sepharose 4B, and the mixture is stirred at 37° C. for 3 hours. Concentration of CET in the reaction mixture is estimated by assaying antibacterial activity against Bacillus subtilis PCI-219 and conversion rate from 7-ACA to CET is calculated.
# [8] = system: immobilized enzyme from Arthrobacter globiformis M-345-2; assay: Acylating capacity of immobilized enzyme from Arthrobacter globiformis M-345-2; type: biochemical
# [9] = system: purified acylase of Bacillus circulans M-1123-5 immobilized on agar gel; assay: Acylating capacity of immobilized pure enzyme; type: biochemical
# [10] = system: acylase of Micrococcus luteus M-331-1 (dried cells); assay: CET production with dried cells of Micrococcus luteus M-331-1; type: biochemical; conditions: dried cells 26 mg, 3 hours, 37° C., pH 7.0
# Protocol: The broth is added into an aqueous medium (100 volumes) of the same composition as above, and incubated for 3 days at 28° C.
# The broth is neutralized with hydrochloric acid to pH 7, centrifuged to collect the cells, washed with water and dried by washing with acetone to give 1.302 g of dry cells.
# The dried cells (26 mg) are suspended in water (1.5 ml), diluted with a solution of 7-ACA (4 mg/ml) and TA-tetraester (20 mg/ml) in M/5-phosphate buffer (pH 7.0) (0.5 ml) and shaken for 3 hours at 37° C. to produce CET at a conversion rate of about 30%. (Immobilized cell entrapted in acrylamide gel)
# [11] = system: acylase of Micrococcus luteus M-331-1 (immobilized cells); assay: CET production with immobilized cells in acrylamide gel; type: biochemical; conditions: 7-ACA 1 mg/ml
# Protocol: In a solution of acrylamide monomer (750 mg) and N,N'-methylenebisacrylamide (40 mg) in M/20-phosphate buffer (pH 7.0) (4 ml) are suspended said dry cells (1 g). To this solution is added 5% 3-dimethylaminopropionitrile (0.5 ml) and aqueous 1% potassium persulfate (0.5 ml) and the mixture is allowed to stand at 25° C. for 30 minutes. Produced gel is crushed with blender and produced particles over 100 mesh are collected, filled in a 10 mm .phi. tube, and washed with M/20-phosphate buffer (pH 7.0) to give a column (10.2 ml) of immobilized cells.
# [12] = system: acylase of Bacillus circulans M-1123-5 absorbed on Celite 560; assay: Acylating capacity of absorbed enzyme on Celite 560; type: biochemical
# [13] = TA-tetraester 12.5 mg/ml, pH 7.0
# [14] = TA-tetraester 18.8 mg/ml, pH 7.0
smiles,measurement,setting,value
COCCOCCOCCOCCOCCOC(=O)Cn1cnnn1,"product detected and determined, B. Circulans M-1123-5",[1],55.7
same,"product detected and determined, A. fragerum M-2183-1",[2],54.9
same,"product detected and determined, A. globiformis M-345-2",[3],43.7
COCCOCCOC(=O)C(N)c1ccccc1 (stereo not shown),"product detected and determined, B. Circulans M-1123-5",[1],29.6
same,"product detected and determined, A. globiformis M-345-2",[3],10.6
COC(=O)Cc1cccs1 [2-thienylacetic acid methyl ester],solubility,Solubility in water,10000 µg/mL
COCCOCCOC(=O)[C@H](N)c1ccccc1 [D-phenylglycin diethyleneglycol ester methyl ether],conversion rate to cephalexin,[4],26.3%
"O=C(Cc1cccs1)OCC(O)CO (stereo not shown) [TA-glycerin ester, 2-thienylacetic acid glycerin ester]",produced cephalothin,[5],34 µg/mL
same,7-ACA→CET Conversion rate (%),[6]; carrier Sepharose 4B,82.0%
same,Conversion rate (%),[7],73.7%
COCCOCCOCCOCCOCCOCCOCCOCCOC(=O)Cc1cccs1 [TA-octaester methyl ether],7-ACA→CET Conversion rate (%),[6]; carrier Agar gel,69.8%
same,7-ACA→CET Conversion rate (%),[6]; carrier Sepharose 4B,69.8%
same,Conversion rate (%),[7],68.2%
same,Conversion rate,"[8]; 7-ACA 1 mg/ml, TA-ester 60, Agar gel",80.5%
same,Conversion rate,"[8]; 7-ACA 1 mg/ml, TA-ester 114, Agar gel",76.5%
same,7-ACA→CET Conversion rate (%),"[9]; Elute 39 ml, 7-ACA 10 mg/ml, ester 142.2 mg/ml, 16 ml/hr",84.8%
same,7-ACA→CET Conversion rate (%),[9]; Elute 173 ml,85.2%
same,7-ACA→CET Conversion rate (%),[9]; Elute 306 ml,85.3%
same,7-ACA→CET Conversion rate (%),[9]; Elute 405 ml,90.4%
same,7-ACA→CET Conversion rate (%),[9]; Elute 731 ml,85.7%
same,7-ACA→CET Conversion rate (%),[9]; Elute 782 ml,86.3%
same,7-ACA→CET Conversion rate (%),[9]; Elute 917 ml,88.5%
same,7-ACA→CET Conversion rate (%),[9]; Elute 1089 ml,86.9%
same,7-ACA→CET Conversion rate (%),[9]; Elute 1156 ml,86.6%
same,7-ACA→CET Conversion rate (%),[9]; Elute 1294 ml,82.5%
same,7-ACA→CET Conversion rate (%),[9]; Elute 1432 ml,83.1%
same,7-ACA→CET Conversion rate (%),[9]; Elute 1534 ml,82.0%
"O=C(Cc1cccs1)OCCOCCOCCOCCOCCOCCOCCOCCO [TA-octaester, 2-thienylacetic acid octaethyleneglycol ester]",produced cephalothin,[5],22 µg/mL
same,Conversion rate (%),[7],76.2%
O=C(Cc1cccs1)OCCOCCOCCOCCOCCO [TA-pentaester],7-ACA→CET Conversion rate (%),[6]; carrier Sepharose 4B,69.9%
same,Conversion rate (%),[7],80.6%
COCCOCCOCCOCCOC(=O)Cc1cccs1 [TA-tetraester methyl ether],7-ACA→CET Conversion rate (%),[6]; carrier Agar gel,86.5%
same,7-ACA→CET Conversion rate (%),[6]; carrier Sepharose 4B,86.5%
same,Conversion rate (%),[7],73.3%
"O=C(Cc1cccs1)OCCOCCOCCOCCO [TA-tetraester, 2-thienylacetic acid tetraethyleneglycol ester]",produced cephalothin,[5],26 µg/mL
same,7-ACA→CET Conversion rate (%),[6]; carrier Agar gel,85.0%
same,7-ACA→CET Conversion rate (%),[6]; carrier Sepharose 4B,87.6%
same,conversion rate (CET produced),[10],about 30%
same,Conversion rate (%),[7],77.1%
same,conversion rate (CET in eluate),[11]; TA-tetraester 6 mg/ml,28.6 to 32.5%
same,conversion rate (CET in eluate),[11]; TA-tetraester 30 mg/ml,31.2 to 34.1%
same,7-ACA→CET Conversion rate (%) In eluate,[12]; [13],63.0%
same,7-ACA→CET Conversion rate (%) Isolated Na salt,[12]; [13],53.0%
same,7-ACA→CET Conversion rate (%) In eluate,[12]; [14],63.0%
same,7-ACA→CET Conversion rate (%) Isolated Na salt,[12]; [14],64.2%
same,7-ACA→CET Conversion rate (%) In eluate,"[12]; TA-tetraester 25 mg/ml, pH 6.0",62.8%
same,7-ACA→CET Conversion rate (%) Isolated Na salt,"[12]; TA-tetraester 25 mg/ml, pH 6.0",48.5%
same,7-ACA→CET Conversion rate (%) In eluate,"[12]; TA-tetraester 25 mg/ml, pH 7.0",72.9%
same,7-ACA→CET Conversion rate (%) Isolated Na salt,"[12]; TA-tetraester 25 mg/ml, pH 7.0",67.2%
same,7-ACA→CET Conversion rate (%) In eluate,"[12]; TA-tetraester 25 mg/ml, pH 8.0",71.6%
same,7-ACA→CET Conversion rate (%) Isolated Na salt,"[12]; TA-tetraester 25 mg/ml, pH 8.0",49.3%
same,Conversion rate,"[8]; 7-ACA 1 mg/ml, TA-ester 114, Sephalose 4B",78.5%
same,Conversion rate,"[8]; 7-ACA 1 mg/ml, TA-ester 120, Sephalose 4B",83.7%
same,Conversion rate,"[8]; 7-ACA 2 mg/ml, TA-ester 120, Sephalose 4B",71.0%
same,Conversion rate,"[8]; 7-ACA 3 mg/ml, TA-ester 120, Sephalose 4B",56.3%
O=C(Cc1ccccc1)OCCOCCOCCOCCO [drawing 18],"product detected and determined, B. Circulans M-1123-5",[1],36.2
same,"product detected and determined, A. fragerum M-2183-1",[2],16.1
same,"product detected and determined, A. globiformis M-345-2",[3],10.1
O=C(Cc1ccccc1)OCCOCCOCCOCCO [drawing 20],"product detected and determined, B. Circulans M-1123-5",[1],Decomposition with penicillinase
same,"product detected and determined, A. fragerum M-2183-1",[2],20.3
same,"product detected and determined, A. globiformis M-345-2",[3],18.0
